The text below walks through data of BindingDB's records for patent US20260014133 (St. Jude''s Chidren''s Research Hospital, Inc., 2026).

In the assay the target is DNA damage-binding protein 1/Protein cereblon (Homo sapiens, UniProt Q96SW2). The assay can be described thus: CRBN Fluorescence Polarization Assay. How it is done:
In this competitive fluorescent polarization assay Cy5 conjugated lenalidomide analog (Cy5-O-Len)13 was used as a fluorescent probe. 6×His-CRBN-DDB1 protein (200 nM) and Cy5-O-Len probe (30 nM) were combined in 20 mM HEPES pH 7, 150 mM NaCl, 0.005% Tween-20 assay buffer. 20 μL of this assay cocktail was dispensed into wells of Corning 3821 black 384-well plates. Compounds were transferred to the assay plate from a dose-response plate using a Pintool on a Biomek FXP Laboratory Automation Workstation (Beckman Coulter). The plates were incubated in the dark for 1 hour at room temperature and then read on an Envision plate reader (PerkinElmer, Massachusetts, USA). IC50 values were determined using a proprietary software RISE (Robust Investigation of Screening Experiments), developed in house on the Pipeline Pilot platform (Biovia, v. 17.2.0). Data represent the mean of three independent determinations.
Background: Polarisation of emitted light reports the rotation of a fluorescent probe.

Structures are written as SMILES.

In general, IC50 refers to the point on the concentration scale where inhibition reaches its midpoint. Low readings indicate inhibition by little substance, high ones a need for much substance.

For the compound `O=C1CCC(N2Cc3cc(NC(=O)Cc4ccccn4)ccc3C2=O)C(=O)N1` (stereo unspecified) [US20260014133, Compound 28], the IC50 is < 1 µM.
